According to patent publication US11140318B2, “Laser endoscope device” (Mie University, priority 2016, dated 2021):
Read-outs that look alike come from different tables or passages of the source.

Key:
[1] = system: healthy mucosa tissue; conditions: mouse, in vivo
Text: (§1) The finding 3 will be described with reference to a case where a cell morphology in a living body is imaged under the multiphoton laser microscope (FV1000MPE manufactured by Olympus Corporation) while changing the focal point position and a plurality of captured images are cut in a predetermined position to create a cross-sectional image (tomographic image). A laboratory mouse was used as the living body.
(§2) As the stain for staining the cell group, both the stain containing curcumin and the stain containing Acid Red (red #106) were used. The staining period was set at 5 minutes. The staining period is the period for which the stain is caused to be in contact with the cell group and the dye of the stain is allowed to penetrate into the cells themselves or the gaps between the cells.

[2] = system: cancer tissue; conditions: mouse, in vivo
Text: as §1, §2

Row | depth to which the tissue is stained ([1]; 5 min) | depth to which the tissue is stained ([2]; 5 min) | depth to which the tissue is stained [1] | depth to which the tissue is stained [2] | Compound
1 | about 20 μm | about 40 μm |  |  | COc1cc(/C=C/C(=O)CC(=O)/C=C/c2ccc(O)c(OC)c2)ccc1O [curcumin dye, curcumin]
2 |  |  | about 70 μm | about 40 μm | CCN(CC)c1ccc2c(-c3ccc(S(=O)(=O)[O-])cc3S(=O)(=O)[O-])c3ccc(=[N+](CC)CC)cc-3oc2c1.[Na+] [Acid Red dye, Acid Red]
